Test results published in publication PMC7616177, “From structure to clinic: Design of a muscarinic M1 receptor agonist with the potential to treat Alzheimer’s disease” (Cell, 2021).
Where two headings read alike, the source gives them in different places. Values belong to the compound of their own block, whether it stands above or below them.

Assays:
human M1 receptor = target: T1, human M1 receptor (Homo sapiens, UniProt P11229); assay: M1-receptor functional agonist assays (pERK1/2 and calcium mobilisation) for hits and SAR; assay type: cell-based
T1 construct: expressed in transfected cells
T1 sequence (P11229 1-460): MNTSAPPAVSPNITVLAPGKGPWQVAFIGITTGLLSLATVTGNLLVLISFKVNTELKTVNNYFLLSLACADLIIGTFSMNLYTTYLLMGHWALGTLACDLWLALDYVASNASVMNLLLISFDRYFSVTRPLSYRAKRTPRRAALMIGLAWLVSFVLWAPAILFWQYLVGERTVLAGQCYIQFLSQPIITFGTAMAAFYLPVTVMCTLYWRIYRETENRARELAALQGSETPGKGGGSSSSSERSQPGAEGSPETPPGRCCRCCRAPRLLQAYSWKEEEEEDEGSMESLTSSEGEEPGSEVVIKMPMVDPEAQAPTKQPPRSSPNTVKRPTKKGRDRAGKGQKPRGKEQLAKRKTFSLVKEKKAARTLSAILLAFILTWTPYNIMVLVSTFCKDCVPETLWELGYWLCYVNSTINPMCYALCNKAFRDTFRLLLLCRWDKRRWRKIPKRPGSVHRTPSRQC

M2-receptor = target: T2, M2-receptor (Homo sapiens, UniProt P08172); assay: M2-receptor functional agonist assay; assay type: cell-based; set-up: expressed in transfected cells
T2 sequence (P08172 1-466): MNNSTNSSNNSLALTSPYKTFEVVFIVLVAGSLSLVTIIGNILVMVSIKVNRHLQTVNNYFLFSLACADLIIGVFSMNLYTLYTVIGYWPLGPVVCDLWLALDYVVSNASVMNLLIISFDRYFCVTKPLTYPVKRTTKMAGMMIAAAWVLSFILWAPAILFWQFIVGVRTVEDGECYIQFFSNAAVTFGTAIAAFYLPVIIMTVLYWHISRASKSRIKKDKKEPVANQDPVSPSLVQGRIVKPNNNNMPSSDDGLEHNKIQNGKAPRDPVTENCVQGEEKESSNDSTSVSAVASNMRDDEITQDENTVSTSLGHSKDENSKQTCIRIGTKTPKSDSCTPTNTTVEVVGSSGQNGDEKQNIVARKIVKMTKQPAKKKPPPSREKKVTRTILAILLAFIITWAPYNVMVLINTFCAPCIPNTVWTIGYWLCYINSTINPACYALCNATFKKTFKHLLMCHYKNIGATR
Procedure: (§1) Functional assays were performed using the Alphascreen Surefire phopho-ERK1/2 assay. […] Once adhered, cells were serum starved overnight. Agonist stimulation was performed by the addition of […] agonist to the cells for a pre-optimized 5 min period (37°C). Media was removed and 50 μl of lysis buffer added. After 15 min a 4 μl sample was transferred to a 384-well plate and 7 μl of detection mixture added.

M4-receptor = target: T3, M4-receptor (Homo sapiens, UniProt P08173); assay: M4-receptor functional agonist assay; assay type: cell-based; set-up: expressed in transfected cells; conditions: for EC50: read-out: M4-receptor EC50
T3 sequence (P08173 1-479): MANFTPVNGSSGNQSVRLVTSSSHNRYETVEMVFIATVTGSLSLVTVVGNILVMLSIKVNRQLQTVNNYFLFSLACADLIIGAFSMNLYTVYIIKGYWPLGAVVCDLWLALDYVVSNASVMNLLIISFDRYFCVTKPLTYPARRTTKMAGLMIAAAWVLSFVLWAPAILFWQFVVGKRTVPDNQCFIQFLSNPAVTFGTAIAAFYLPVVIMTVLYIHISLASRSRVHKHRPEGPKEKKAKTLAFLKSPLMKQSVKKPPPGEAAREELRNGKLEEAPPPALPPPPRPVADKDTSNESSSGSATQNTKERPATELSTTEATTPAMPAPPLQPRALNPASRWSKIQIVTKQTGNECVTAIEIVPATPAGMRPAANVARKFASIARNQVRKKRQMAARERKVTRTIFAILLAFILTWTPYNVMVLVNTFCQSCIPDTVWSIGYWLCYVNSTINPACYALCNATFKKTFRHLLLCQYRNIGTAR
Procedure: as §1

M3-receptor = target: T4, M3-receptor (Homo sapiens, UniProt P20309); assay: M3-receptor functional agonist assay; assay type: cell-based
T4 construct: expressed in transfected cells
T4 sequence (P20309 whole entry): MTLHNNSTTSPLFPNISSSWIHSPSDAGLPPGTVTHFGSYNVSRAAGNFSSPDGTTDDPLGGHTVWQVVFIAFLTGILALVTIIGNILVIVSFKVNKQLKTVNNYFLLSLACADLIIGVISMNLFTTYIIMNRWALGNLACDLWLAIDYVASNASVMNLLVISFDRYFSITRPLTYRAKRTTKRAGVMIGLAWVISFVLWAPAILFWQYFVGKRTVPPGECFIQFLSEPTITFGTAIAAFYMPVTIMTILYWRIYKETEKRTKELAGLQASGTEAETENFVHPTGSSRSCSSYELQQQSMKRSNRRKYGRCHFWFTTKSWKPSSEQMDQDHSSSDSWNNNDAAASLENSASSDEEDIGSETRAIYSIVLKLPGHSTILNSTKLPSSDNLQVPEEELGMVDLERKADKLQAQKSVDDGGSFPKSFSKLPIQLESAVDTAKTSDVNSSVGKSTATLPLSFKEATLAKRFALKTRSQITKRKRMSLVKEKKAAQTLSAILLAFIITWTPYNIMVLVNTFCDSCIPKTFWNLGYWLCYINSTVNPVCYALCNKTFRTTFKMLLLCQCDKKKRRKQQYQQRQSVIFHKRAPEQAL
Procedure: as §1

Wistar rats = assay: Scopolamine-induced amnesia in passive avoidance; assay type: in vivo, rat; conditions: rat passive avoidance, donepezil 0.01 mg/kg
Procedure: Male adult Wistar rats (Harlan, UK; approximately 11 weeks of age) were acclimatised to the experimental rooms for three days (study days 1-3) and handled for a further two days (study days 4 and 5) prior to the experiment.
Donepezil (0.01 and 0.1 mg/kg) was administered via intraperitoneal injection (in saline) 60 min prior to training. Rats were trained in a single-trial, step-through, light-dark passive avoidance paradigm. The training apparatus consisted of a chamber 300 mm in length, 260 mm wide, and 270 mm in height. The front and top were transparent, allowing the experimenter to observe the behavior of the animal inside the apparatus. The chamber was divided into two compartments, separated by a central shutter that contained a small opening (50 mm wide and 75 mm high) set close to the front of the chamber. The smaller of the compartments measured 90 mm in width and contained a low-light (~200 lux) illumination source. The larger compartment measured 210 mm in width and was not illuminated. The floor of this dark compartment consisted of a grid of 16 horizontal stainless-steel bars that were 5 mm in diameter and spaced 12.5 mm apart. A current generator supplied 0.75 mA to the grid floor, which was scrambled once every 0.5 s across the 16 bars.
Animals were placed facing the rear of the light compartment of the apparatus, immediately after which, spontaneous behavior was assessed. The timer was started once the animal completely turned to face the front of the chamber. Latency to enter the dark chamber was recorded, and having completely entered the dark compartment foot shock was administered to the animal, which immediately returned to the light compartment. Animals were then returned to their home cages. Between each training session, both compartments of the chamber were cleaned to remove any confounding olfactory cues. Vehicle (saline) or scopolamine (1 mg/kg) was administered to rats 6 hours after training. Recall of the inhibitory stimulus was evaluated 24 hour post-training on study day 7, by returning the animal into the light chamber and recording their latency to enter the dark chamber, a criterion time of 600 s was employed. Observation of the animals was made by overhead video camera linked to a monitor behind a screened area. Animal treatment was blinded to the observer.

[1] = SAR, Table S4, read-out: M1-receptor agonist activity EC50

EC50 (human M1 receptor; fragment hit, read-out: EC50 at the M1-receptor): 3500 nM
Structure (SMILES): CCOC(=O)N1CCC(N2CCC(C(N)=O)CC2)CC1 [Compound 4]

EC50 (human M1 receptor; [1]): 316 nM | M2-receptor agonist activity (M2-receptor): weak | M4-receptor agonist activity (M4-receptor): weak
Structure (SMILES): CCOC(=O)N1CCC(N2CCC(C(=O)NCC(C)C)CC2)CC1 [Compound 5]

EC50 (human M1 receptor; calcium assays, read-out: Potency at the M1-receptor in calcium assays EC50): 79 nM | M2-receptor agonist activity (M2-receptor): no detectable agonist activity | Lower potency at M4-receptors relative to M1 (M4-receptor; M4 vs M1): ten-fold | EC50 (M4-receptor): 794 nM | M3-receptor agonist activity (M3-receptor): no detectable agonist activity
Structure (SMILES): CCOC(=O)N1CCCC(N2CCC(C(=O)NCC(C)C)CC2)CC1 (stereo not drawn) [Compound 6]

M2-receptor agonist activity (M2-receptor): significant M2-receptor agonist activity
Structure (SMILES): Cc1cc(F)c2[nH]c(=O)n(C3CCN(C4CCOCC4)CC3)c2c1 [GSK1034702, reference compound]

Continued, compound first:

Structure (SMILES): CCOC(=O)N1CCC[C@@H](N2CCC(C(=O)NC3(C)CCC3)CC2)CC1 [(R)-Compound 7]
EC50 (human M1 receptor; [1]): 398 nM | EC50 (M2-receptor; read-out: M2-receptor EC50): > 20000 nM | EC50 (M4-receptor): 2500 nM | EC50 (M3-receptor; read-out: M3-receptor EC50): > 20000 nM

Structure (SMILES): COc1cc2c(cc1OC)C(=O)C(CC1CCN(Cc3ccccc3)CC1)C2 (stereo not drawn) [donepezil, reference compound]
Response alone (Wistar rats): inactive
